Measured values: patent publication US5604211A, “Saccharide for supplementing energy to living body, and uses” (priority 1991, dated 1997)

Experiments:
[1] = Digestion test in vitro, enzyme of small intestinal mucous membrane; format: in vitro ADME; details: small intestinal mucosal enzyme, Tables 1 and 2, read-out: Hydrolysis rate
Description: (§1) In accordance with the method reported in K. Okada et al., Journal of Japanese Society of Nutrition and Food Science, Vol.43, No.1, pp.23-29 (1990), a crystalline neotrehalose specimen formulated by the method in Example A1-2 was prepared as an aqueous solution which was then tested for its digestibility in vitro: The digestibility was determined with the following equation and expressed as hydrolysis rate (%): [formula]
Similarly as above, several kinds of disaccharides were tested for their digestibility using the enzyme of the small intestinal mucous membrane.

[2] = when the dose and administration method are not correctly chosen; cited from earlier work
[3] = Utilization test in vivo, intravenous instillation to healthy volunteers (blood sugar, insulin, urine); set-up: species or system human; details: for dose excreted: urine, 50000 mg, read-out: amount of glucose in the urine
Description: A neotrehalose specimen prepared by the method in Example A1-2 was treated to remove pyrogens in the usual manner, and 50 g of the resultant neotrehalose specimen was in accordance with the method reported in Matsuzaki, Yakubutsu Ryoho, Vol.6, No.2, pp.65-72 (1973), formulated as a 10 w/v % aqueous solution which was then intravenously administered to 2 healthy volunteers by instillation. Their blood was sampled at prescribed time intervals and blood sugar and insulin levels were measured, along with the amount of neotrehalose secreted in their urine. As controls, glucose and maltose were used.

[4] = prior art, Japanese patent publications; cited from earlier work
[5] = acidic conditions; cited from earlier work
[6] = Digestion test in vitro, salivary amylase; format: in vitro ADME; details: Table 1, read-out: Hydrolysis rate
Description: as §1

dd mice = experiment: Acute toxicity test, oral, mice; format: in vivo, mouse; details: 7 week-old dd mice
Description: A crystalline neotrehalose specimen, prepared by the method in Example A1-2, was orally administered to 7 week-old dd mice as an acute toxicity test. […] Therefore, the toxicity of the tested substance appears to be extremely low.

[7] = Digestion test in vitro, amylopsin; format: in vitro ADME; details: Table 1, read-out: Hydrolysis rate
Description: as §1

[8] = Utilization test in vivo, oral administration to healthy volunteers (blood sugar and insulin); set-up: species or system human
Description: In accordance with the method described in H. Atsuji et al., Journal of Clinical Nutrition, Vol.41, Vol.2, pp.200-208 (1972), 30 g of a neotrehalose specimen was formulated as a 20 w/v % aqueous solution which was then orally administered to 3 healthy volunteers (men) and their blood was sampled at prescribed time intervals and tested for blood sugar and insulin levels. As a control, glucose was used.

[9] = Digestion test in vitro, gastric juice; format: in vitro ADME; details: Table 1, read-out: Hydrolysis rate
Description: as §1

amylases = details: Japanese Patent Laid-Open No.240,758/88; cited from earlier work
[10] = human, 50 g as 10 w/v % aqueous solution, intravenous instillation, 2 healthy volunteers
[11] = 50 g as 10 w/v % aqueous solution, intravenous instillation, 2 healthy volunteers
[12] = 30 g as 20 w/v % aqueous solution, oral, 3 healthy volunteers, about

For OC[C@H]1O[C@@H](O[C@@H]2O[C@H](CO)[C@@H](O)[C@H](O)[C@H]2O)[C@H](O)[C@@H](O)[C@@H]1O [Isotrehalose (β,β-trehalose), β,β-trehalose], which metabolised [1] is on record?
The metabolised was 0.1%.

For OC[C@@H](O)[C@@H](O)[C@H](O)[C@@H](O)CO [sorbitol], which diarrhea [2] is on record?
The diarrhea was “acute diarrhea”.

Which blood sugar level ([3]; human, in vivo, iv) does the source give for OC[C@H]1OC(O)[C@H](O)[C@@H](O)[C@@H]1O (stereo partly drawn) [glucose, reference compound] here?
Its blood sugar level is “greatly increased”.

What about the insulin level ([3]; human, in vivo, iv) of the same compound?
Its insulin level is “greatly increased”.

And the dose excreted [3, 10]?
Its dose excreted is less than 10%.

For OC[C@@H](O)[C@@H](O[C@H]1O[C@H](CO)[C@@H](O)[C@H](O)[C@H]1O)[C@H](O)[C@@H](O)CO [maltitol], which “metabolism and utilization in vivo” value [4] is on record?
Its value is “not readily metabolized and utilized in vivo”.

Which “hydrolysis into glucose and fructose” value [5] does the source give for OC[C@H]1O[C@@](CO)(O[C@H]2O[C@H](CO)[C@@H](O)[C@H](O)[C@H]2O)[C@@H](O)[C@@H]1O [Sucrose] here?
Its value is “readily hydrolyzed”.

For OC[C@H]1O[C@H](O[C@H]2[C@H](O)[C@@H](O)[C@H](O)O[C@@H]2CO)[C@H](O)[C@@H](O)[C@@H]1O [Maltose, reference compound], which dose excreted [3, 10] is on record?
The dose excreted was less than 20%.

Which diarrhea [2] does the source give for OC[C@@H](O)[C@H](O)[C@@H](O)CO [xylitol] here?
The diarrhea was “acute diarrhea”.

With OC[C@H]1O[C@@H](O[C@H]2O[C@H](CO)[C@@H](O)[C@H](O)[C@H]2O)[C@H](O)[C@@H](O)[C@@H]1O [neotrehalose, O-α-D-glucopyranosyl β-D-glucopyranoside] as the compound, how does the metabolised [1] read?
Its metabolised is 43%.

What about the metabolised [6] of the same compound?
The metabolised was 0%.

And the toxicity (dd mice)?
The toxicity was “extremely low”.

What about the “highest administered dose without animal death” value (dd mice; difficult to administer a higher dose) of the same compound?
The value was 5 g.

And the animal death (dd mice; up to 5 g)?
The animal death was “no animal death”.

And the metabolised [7]?
Its metabolised is 0%.

What about the blood sugar level [3, 11] of the same compound?
Its blood sugar level is “slightly increased”.

And the insulin level [3, 11]?
The insulin level was “did not greatly increase”.

What about the “dynamics of blood sugar and insulin compared with maltose” value ([3]; 50 g intravenous, controls glucose and maltose) of the same compound?
The value was “the same dynamics as maltose”.

What about the dose excreted [3, 10] of the same compound?
Its dose excreted is less than 20%.

And the “time of maximum value of blood sugar level after oral administration” value [8, 12]?
Its value is 0.5 to 1 h.

And the “time of maximum value of insulin level after oral administration” value [8, 12]?
The value was 0.5 to 1 h.

What about the “behaviour of blood sugar and insulin levels compared with glucose” value ([8]; 30 g oral, control glucose) of the same compound?
The value was “behaved similarly as glucose”.

What about the metabolised [9] of the same compound?
Its metabolised is 0%.

For OC[C@@H](O)[C@@H](O[C@@H]1O[C@H](CO)[C@H](O)[C@H](O)[C@H]1O)[C@H](O)[C@@H](O)CO [lactitol], which “metabolism and utilization in vivo” value [4] is on record?
Its value is “not readily metabolized and utilized in vivo”.

Which “hydrolysis by enzymes such as amylases” value (amylases) does the source give for OC[C@H]1O[C@H](O[C@H]2O[C@H](CO)[C@@H](O)[C@H](O)[C@H]2O)[C@H](O)[C@@H](O)[C@@H]1O [Trehalose (α,α-trehalose), α,α-trehalose] here?
The value was “not readily hydrolyzed”.

And the metabolised [1]?
Its metabolised is 0.4%.

And the “metabolism and utilization in vivo” value [4]?
Its value is “not readily metabolized and absorbed by the human body”.
